# Measured values from patent US20230104936A1, “TRPML MODULATORS” (Casma Therapeutics, Inc., priority 2019, published 2023).
# Tested on: TFEB
# Experiment: TFEB nuclear translocation assay, HeLa wt cells
# Type: cell-based
# Conditions: 2 hrs compound treatment, Table 1 does not say HeLa wt or TRPML1 KO
# How it was run: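 AC50 derived from the ratio of nuclear to perinuclear ring (−5 μm) anti-TFEB immunofluorescence, imaged at ×20 over four fields per well. HeLa wt or TRPML1 KO cells were exposed to compounds for 2 hrs at 37° C, then PFA-fixed and counterstained with Hoechst.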
Structure (SMILES),"AC50 (Homo sapiens, HeLa, 2 h) [µM]",AC50 [µM]
"CN(C)S(=O)(=O)c1ccc(S(=O)(=O)Nc2cccc(F)c2N2CCC(N3CCC4(CCOC4)C3)CC2)cc1 (stereo not shown) [Compound A-874, N4-[3-fluoro-2-(4-{2-oxa-7-azaspiro[4.4]nonan-7-yl}piperidin-1-yl)phenyl]-N1,N1-dimethylbenzene-1,4-disulfonamide]",2.01 to 8,
"COc1ccc(S(=O)(=O)Nc2ccccc2N2CC(Cc3ccc(F)cc3F)C2)cc1 [Compound A-219, N-(2-{3-[(2,4-difluorophenyl)methyl]azetidin-1-yl}phenyl)-4-methoxybenzene-1-sulfonamide]",≥ 10,
"COCC1(C)CCN(c2ccccc2NS(=O)(=O)c2ccc(CC(C)(C)C)cc2)CC1 [Compound A-489, 4-(2,2-dimethylpropyl)-N-{2-[4-(methoxymethyl)-4-methylpiperidin-1-yl]phenyl}benzene-1-sulfonamide]",2.01 to 8,
"CC(c1cccc(F)c1N1CCC(CN2C[C@@H](C)O[C@@H](C)C2)CC1)S(=O)(=O)c1ccc(N=S(C)(C)=O)cc1 (stereo partly drawn) [Compound A-1002, [(4-{1-[2-(4-{[(2R,6S)-2,6-dimethylmorpholin-4-yl]methyl}piperidin-1-yl)-3-fluorophenyl]ethanesulfonyl}phenyl)imino]dimethyl-λ^6-sulfanone]",≥ 10,
"CN(C)S(=O)(=O)c1ccc(S(=O)(=O)Nc2ccccc2N2CCC(c3cccc(-c4nn[nH]n4)c3)CC2)cc1 [Compound A-272, N1,N1-dimethyl-N4-(2-{4-[3-(2H-1,2,3,4-tetrazol-5-yl)phenyl]piperidin-1-yl}phenyl)benzene-1,4-disulfonamide]",≥ 10,
"CN1CCC(S(=O)(=O)Nc2ccccc2N2CCN(c3ccc(Cl)cc3F)CC2)CC1 [Compound A-16, N-{2-[4-(4-chloro-2-fluorophenyl)piperazin-1-yl]phenyl}-1-methylpiperidine-4-sulfonamide]",2.01 to 8,
"CN(C)S(=O)(=O)c1ccc(NS(=O)(=O)c2ccccc2N2CCC(c3ccc(Cl)cc3F)CC2)cc1 [Compound A-108, 4-((2-(4-(4-chloro-2-fluorophenyl)piperidin-1-yl)phenyl)sulfonamido)-N,N-dimethylbenzenesulfonamide]",≤ 2,
"CN1Cc2cc(S(=O)(=O)Nc3ccccc3N3CCC(c4ccc(Cl)cc4F)CC3)ccc2C1=O [Compound A-61, N-{2-[4-(4-chloro-2-fluorophenyl)piperidin-1-yl]phenyl}-2-methyl-1-oxo-2,3-dihydro-1H-isoindole-5-sulfonamide]",≥ 10,
"COCC(C)N1CCN(c2ccccc2NS(=O)(=O)c2ccc(S(=O)(=O)N(C)C)cc2)CC1 (stereo not shown) [Compound A-418, N4-{2-[4-(1-methoxypropan-2-yl)piperazin-1-yl]phenyl}-N1,N1-dimethylbenzene-1,4-disulfonamide]",2.01 to 8,
"CC(c1cccc(F)c1N1CCC(COC(C)(C)C)CC1)S(=O)(=O)c1ccc(S(=N)(=O)N(C)C)cc1 (single isomer, unassigned) [Compound A-946, 4-((1-(2-(4-(tert-butoxymethyl)piperidin-1-yl)-3-fluorophenyl)ethyl)sulfonyl)-N,N-dimethylbenzenesulfonimidamide]",,≤ 2
"CN1CC2(CCN(c3ccccc3N(C)S(=O)(=O)c3ccc(S(=O)(=O)N(C)C)cc3)CC2)c2ccc(F)cc21 [Compound A-243, N1-(2-{6-fluoro-1-methyl-1,2-dihydrospiro[indole-3,4′-piperidin]-1′-yl}phenyl)-N1,N4,N4-trimethylbenzene-1,4-disulfonamide]",≤ 2,
"COCC1(C)CCN(c2ccccc2NS(=O)(=O)Cc2ccccc2)CC1 [Compound A-532, N-{2-[4-(methoxymethyl)-4-methylpiperidin-1-yl]phenyl}-1-phenylmethanesulfonamide]",≤ 2,
"CC(C)OC(=O)N1CCN(c2ccccc2NS(=O)(=O)c2ccc(S(=O)(=O)N(C)C)cc2)CC1 [Compound A-336, propan-2-yl 4-{2-[4-(dimethylsulfamoyl)benzenesulfonamido]phenyl}piperazine-1-carboxylate]",≤ 2,
"COCC1(C)CCN(c2c(F)cccc2NS(=O)(=O)c2ccc(S(=O)(=O)N(C)C)cc2)CC1 [Compound A-681, N4-{3-fluoro-2-[4-(methoxymethyl)-4-methylpiperidin-1-yl]phenyl}-N1,N1-dimethylbenzene-1,4-disulfonamide]",≤ 2,
"CC(c1cccc(F)c1N1CCCCC1)S(=O)(=O)c1ccc(S2(=O)=NCCC2)cc1 (single isomer, unassigned) [Compound A-992, 1-(4-((1-(3-fluoro-2-(piperidin-1-yl)phenyl)ethyl)sulfonyl)phenyl)-4,5-dihydro-3H-isothiazole 1-oxide]",,≥ 10
"CS(=O)(=O)c1ccc(S(=O)(=O)Nc2ccc(F)cc2N2CCC(c3c(F)cccc3F)CC2)cc1 [Compound A-155, N-{2-[4-(2,6-difluorophenyl)piperidin-1-yl]-4-fluorophenyl}-4-methanesulfonylbenzene-1-sulfonamide]",2.01 to 8,
"CN(C)S(=O)(=O)c1ccc(S(=O)(=O)Nc2ccccc2C2CCN(c3ccc(Cl)cc3F)CC2)cc1 [Compound A-22, N1-(2-(1-(4-chloro-2-fluorophenyl)piperidin-4-yl)phenyl)-N4,N4-dimethylbenzene-1,4-disulfonamide]",2.01 to 8,

Structure (SMILES),"AC50 (Homo sapiens, HeLa, 2 h) [µM]",AC50 [µM]
"COc1ccc(S(=O)(=O)Nc2ccccc2N2CCC(Oc3ccc(F)cc3F)CC2)cc1 [Compound A-196, N-{2-[4-(2,4-difluorophenoxy)piperidin-1-yl]phenyl}-4-methoxybenzene-1-sulfonamide]",≤ 2,
"CP(C)(=O)c1ccc(S(=O)(=O)Nc2cccc(Cl)c2N2CCOCC2)cc1 [Compound A-287, N-[3-chloro-2-(morpholin-4-yl)phenyl]-4-(dimethylphosphoryl)benzene-1-sulfonamide]",≥ 10,
"CN(C)S(=O)(=O)c1ccc(S(=O)(=O)Nc2ccnnc2N2CCC(c3ccc(Cl)cc3F)CC2)cc1 [Compound A-139, N4-{3-[4-(4-chloro-2-fluorophenyl)piperidin-1-yl]pyridazin-4-yl}-N1,N1-dimethylbenzene-1,4-disulfonamide]",≥ 10,
"COCC1(C)CCN(c2ccccc2NS(=O)(=O)Cc2cc(C)ccc2F)CC1 [Compound A-648, 1-(2-fluoro-5-methylphenyl)-N-{2-[4-(methoxymethyl)-4-methylpiperidin-1-yl]phenyl}methanesulfonamide]",≤ 2,
"CC(=O)NC1(C)CCN(c2c(F)cccc2NS(=O)(=O)c2ccc(S(=O)(=O)N(C)C)cc2)CC1 [Compound A-795, N-(1-{2-[4-(dimethylsulfamoyl)benzenesulfonamido]-6-fluorophenyl}-4-methylpiperidin-4-yl)acetamide]",8.01 to 9.99,
"O=S(=O)(Nc1ccccc1N1CCC(c2ccc(Cl)cc2F)CC1)c1c(F)cccc1F [Compound A-81, N-{2-[4-(4-chloro-2-fluorophenyl)piperidin-1-yl]phenyl}-2,6-difluorobenzene-1-sulfonamide]",≥ 10,
"CN(C)S(=O)(=O)c1ccc(S(=O)(=O)Cc2ccccc2N2CCN(Cc3ccccc3)CC2)cc1 [Compound A-406, 4-((2-(4-benzylpiperazin-1-yl)benzyl)sulfonyl)-N,N-dimethylbenzenesulfonamide]",2.01 to 8,
"CC(Nc1ccccc1N1CCC(c2ccc(Cl)cc2F)CC1)c1ccc(S(=O)(=O)N(C)C)cc1 (stereo not shown) [Compound A-443, 4-[1-({2-[4-(4-chloro-2-fluorophenyl)piperidin-1-yl]phenyl}amino)ethyl]-N,N-dimethylbenzene-1-sulfonamide]",2.01 to 8,
"CNC(=O)c1cccc(NS(=O)(=O)c2ccc(S(=O)(=O)N(C)C)cc2)c1N1CCCCC1 [Compound A-809, 3-[4-(dimethylsulfamoyl)benzenesulfonamido]-N-methyl-2-(piperidin-1-yl)benzamide]",≥ 10,
"CC(c1cccc(F)c1N1CCC(C)(C(F)F)CC1)S(=O)(=O)c1ccc(C(F)F)cc1 (single isomer, unassigned) [Compound A-963, 4-(difluoromethyl)-1-(2-(1-((4-(difluoromethyl)phenyl)sulfonyl)ethyl)-6-fluorophenyl)-4-methylpiperidine]",2.01 to 8,
"Cc1ccc(S(=O)(=O)Cc2ccccc2N2CCC(c3ccc(Cl)cc3F)CC2)cc1 [Compound A-138, 4-(4-chloro-2-fluorophenyl)-1-(2-(tosylmethyl)phenyl)piperidine]",≤ 2,
"CC(c1cccc(F)c1N1CCOCC1)S(=O)(=O)c1ccc2c(c1)CCS2(=O)=O (single isomer, unassigned) [Compound A-966, 5-((1-(3-fluoro-2-morpholinophenyl)ethyl)sulfonyl)-2,3-dihydrobenzo[b]thiophene 1,1-dioxide]",≥ 10,
"CN(C)S(=O)(=O)c1ccc(S(=O)(=O)Nc2ccccc2N2CCC(CN3CCOCC3)CC2)cc1 [Compound A-554, N1,N1-dimethyl-N4-(2-{4-[(morpholin-4-yl)methyl]piperidin-1-yl}phenyl)benzene-1,4-disulfonamide]",≤ 2,
"Cc1ccc(S(=O)(=O)C(C)c2cccc(F)c2N2CCC(CN3C4CCC3COC4)CC2)cc1 (single isomer, unassigned) [Compound A-965, 8-((1-(2-fluoro-6-(1-tosylethyl)phenyl)piperidin-4-yl)methyl)-3-oxa-8-azabicyclo[3.2.1]octane]",,≥ 10
"Cc1ccc(S(=O)(=O)Nc2ccccc2N2CCC(c3ccc(Cl)cc3F)CC2)cc1 [Compound A-72, N-{2-[4-(4-chloro-2-fluorophenyl)piperidin-1-yl]phenyl}-4-methylbenzene-1-sulfonamide]",≤ 2,
"CN(C)S(=O)(=O)c1ccc(S(=O)(=O)Nc2ccccc2N2CCC(C#N)(c3ccc(F)cc3F)CC2)cc1 [Compound A-175, N4-{2-[4-cyano-4-(2,4-difluorophenyl)piperidin-1-yl]phenyl}-N1,N1-dimethylbenzene-1,4-disulfonamide]",≤ 2,
"CN(C)C(=O)N1CCN(c2ccccc2NS(=O)(=O)c2ccc(S(=O)(=O)N(C)C)cc2)CC1 [Compound A-325, 4-{2-[4-(dimethylsulfamoyl)benzenesulfonamido]phenyl}-N,N-dimethylpiperazine-1-carboxamide]",≥ 10,
